Assays:
HEK293 cells [1] = experiment: Preliminary screening as DNA vectors, GFP transfection of HEK293 cells; type: cell-based; conditions: HEK293 cells; lipid/DOPE liposome with 75 ng plasmid DNA (psin-EGFP-IRES-Puro); number of cells expressing GFP divided by total number of nuclei (Hoechst)
Method in brief: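 First, amino lipid and DOPE were vortexed in sodium acetate buffer (pH 5.6) to form liposomes. Next, these were held with 75 ng EGFP plasmid at room temperature for 30 min. Finally, HEK293 cells were added, cultured at 37° C., Hoechst-stained, and GFP+/total nuclei scored by imaging.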

HEK293 cells [2] = experiment: Preliminary screening as mRNA vectors, EGFP mRNA transfection of HEK293 cells; type: cell-based; conditions: HEK293 cells, 96-well plates, EGFP mRNA 50 ng per well; percentage of GFP fluorescent cells relative to total number of cells (Hoechst)
Method in brief: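 Screening format: EGFP mRNA transfection (50 ng/well) into HEK293 in 10% FBS-supplemented DMEM. Percent green fluorescent cells, normalised to Hoechst nuclear count, gave the value; Lipofectamine2000 was the reference transfectant.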

Row | Structure (SMILES) | Absolute DNA transfection efficiency in HEK293 cells (HEK293 cells [1]) [%] | Absolute mRNA transfection efficiency in HEK293 cells (HEK293 cells [2]) [%]
1 | CCCCCCCCCCCCCCCCCCSc1nc(NCCCN(C)C)nc(SCCCCCCCCCCCCCC)n1 [Compound S14S18D6] | 1.2 | 0.2
2 | CCCCCCCCCCCCCCSc1nc(NCCN2CCOCC2)nc(SCCCCCCCCCC)n1 [Compound S10S14D2] | 1.5 | 0.2
3 | CCCCCCCCCCCCCCCCCCNc1nc(NCCCCCCCCCCC)nc(NCCCN(C)C)n1 [Compound N11N18D6] | 0.4 | 0.0
4 | CCCCCCCCCCCCCCCCSc1nc(NCCN(C)C)nc(SCCCCCCCC)n1 [Compound S8S16D1] | 4.6 | 2.2
5 | CCCCCCCCCCCCN(CCCCCCCCCCCC)c1nc(NCCCCCC)nc(NCCCN(C)C)n1 [N6^2N12D6] | 0.4 | 0.1
6 | CCCCCCCCCCCCCCCCSc1nc(NCCCN(C)C)nc(SCCCCCCCCCCCCCC)n1 [Compound S14S16D6] | 1.2 | 0.9
7 | CCCCCCNc1nc(NCCCCCC)nc(NCCN(CC)CC)n1 [Compound N6N6D7] | 0.0 | 0.0
8 | CCCCCCCCCCCCCCCCNc1nc(NCCCCCCCCCCCCCCC)nc(NCCCN(C)C)n1 [Compound N15N16D6] | 0.8 | 1.3
9 | CCCCCCCCCCCCCCCNc1nc(NCCCCCCCCC)nc(NCCN2CCOCC2)n1 [Compound N9N15D2] | 0.0 | 0.2
10 | CCCCCCCCCCCCCCCCCCNc1nc(NCCCCCCCCCCCCC)nc(NCC2CCN(C)CC2)n1 [Compound N13N18D10] | 0.5 | 6.1
11 | CCCCCCCCNc1nc(NCCCCCCCC)nc(NCCCN2CCN(C)CC2)n1 [Compound N8N8D9] | 0.7 | 0.0
12 | CCCCCCCCCCCCCCCCNc1nc(NCCCCCC)nc(NCCN(CC)CC)n1 [Compound N6N16D7] | 0.0 | 0.5
13 | CCCCCCCCCCCCCCCCNc1nc(NCCCCCCCC)nc(NCCN2CCCC2)n1 [Compound N8N16D3] | 8.5 | 13.8
14 | CCCCCCCCCCCSc1nc(NCCN(C)C)nc(SCCCCCCCCCCC)n1 [Compound S11S11D1] | 1.3 | 12.9
15 | CCCCCCCCCCCCCCCCCCSc1nc(NCC2CCN(C)CC2)nc(SCCCCCCCCCCCCCCC)n1 [Compound S15S18D10] | 0.3 | 1.8
16 | CCCCCCCCCCCCNc1nc(NCCCCCCCCCCC)nc(NCC2CCN(C)CC2)n1 [Compound N11N12D10] | 1.8 | 0.4
17 | CCCCCCCCCCCCCCCNc1nc(NCCCN2CCN(C)CC2)nc(N(CCCCCCCCCCCC)CCCCCCCCCCCC)n1 [N15^2N12D9] | 1.7 | 0.0
18 | CCCCCCCCCCCCCCCSc1nc(NCCN(CC)CC)nc(SCCCCCCCCCCCC)n1 [Compound S12S15D7] | 1.4 | 0.0
19 | CCCCCCCCCCCCCCSc1nc(NCC2CCN(C)CC2)nc(SCCCCCCCCCCCC)n1 [Compound S12S14D10] | 6.5 | 30.4
20 | CCCCCCCCCCCCCCCSc1nc(NCCCN2CCN(C)CC2)nc(SCCCCCCCCCCCCCC)n1 [Compound S14S15D9] | 0.0 | 0.0
21 | CCCCCCCCCCCCCCCCSc1nc(NCCN2CCOCC2)nc(SCCCCCCCCCCC)n1 [Compound S11S16D2] | 0.0 | 0.1
22 | CCCCCCCCCCCCCCCNc1nc(NCCCCCCCCCCC)nc(NCCN(C)C)n1 [Compound N11N15D1] | 1.3 | 0.6
23 | CCCCCCCCNc1nc(NCCCCCCC)nc(NCCCN(C)C)n1 [Compound N7N8D6] | 0.0 | 0.0
24 | CCCCCCCCCCCCSc1nc(NCCN(CC)CC)nc(SCCCCCCCCCCC)n1 [Compound S11S12D7] | 3.1 | 0.4

Row | Structure (SMILES) | Absolute DNA transfection efficiency in HEK293 cells (HEK293 cells [1]) [%] | Absolute mRNA transfection efficiency in HEK293 cells (HEK293 cells [2]) [%]
25 | CCCCCCCCCCCCNc1nc(NCCCCCCCC)nc(NCCN2CCCCC2)n1 [Compound N8N12D4] | 0.0 | 0.0
26 | CCCCCCCCCCCCCCCSc1nc(NCCN2CCCC2)nc(SCCCCCCCC)n1 [Compound S8S15D3] | 21.8 | 0.9
27 | CCCCCCNc1nc(NCCCCCC)nc(NCCN2CCOCC2)n1 [Compound N6N6D2] | 0.0 | 0.0
28 | CCCCCCCCCCCSc1nc(NCCN(CC)CC)nc(SCCCCCCCCCC)n1 [Compound S10S11D7] | 7.3 | 1.8
29 | CCCCCCCCCCCCCCCCNc1nc(NCCCCCCCC)nc(NCCN2CCN(C)CC2)n1 [Compound N8N16D5] | 0.2 | 0.3
30 | CCCCCCCCCCCCCCCCCCSc1nc(NCCCN(C)C)nc(SCCCCCCCCC)n1 [Compound S9S18D6] | 1.7 | 11.6
31 | CCCCCCCCCCCCCCCCSc1nc(NCCCN2CCOCC2)nc(SCCCCCCCCCCCC)n1 [Compound S12S16D8] | 0.2 | 0.0
32 | CCCCCCCCCCCCCCCCCCSc1nc(NCCCN2CCN(C)CC2)nc(SCCCCCCCCCCCCCCC)n1 [Compound S15S18D9] | 0.3 | 0.0
33 | CCCCCCCCCCCCCCCNc1nc(NCCN2CCN(C)CC2)nc(N(CCCCCCCCCCCC)CCCCCCCCCCCC)n1 [N15^2N12D5] | 2.8 | 3.7
34 | CCCCCCCCCCCCCCSc1nc(NCCCN2CCOCC2)nc(SCCCCCCCCCCC)n1 [Compound S11S14D8] | 8.8 | 4.2
35 | CCCCCCCCCCCCNc1nc(NCCCCCC)nc(NCCCN2CCOCC2)n1 [Compound N6N12D8] | 0.0 | 0.1
36 | CCCCCCCCCCCCCCCCCCNc1nc(NCCCCCCCCCCCCCCCCCC)nc(NCCCN2CCN(C)CC2)n1 [Compound N18N18D9] | 0.0 | 0.0
37 | CCCCCCCCCCCCCCSc1nc(NCCN2CCN(C)CC2)nc(SCCCCCCCCCC)n1 [Compound S10S14D5] | 15.7 | 12.9
38 | CCCCCCCCCCCCCCSc1nc(NCCCN2CCN(C)CC2)nc(SCCCCCCCCCCC)n1 [Compound S11S14D9] | 4.1 | 9.9
39 | CCCCCCCCCCCCCCCCNc1nc(NCCCCCCCC)nc(NCC2CCN(C)CC2)n1 [Compound N8N16D10] | 3.4 | 1.5
40 | CCCCCCCCNc1nc(NCCCCCC)nc(NCCN2CCOCC2)n1 [Compound N6N8D2] | 0.0 | 0.1
41 | CCCCCCCCCCCCCNc1nc(NCCCCCCCCCCC)nc(NCC2CCN(C)CC2)n1 [Compound N11N13D10] | 0.0 | 0.0
42 | CCCCCCCCCCCCCCSc1nc(NCCCN2CCN(C)CC2)nc(SCCCCCCCCCCCCCC)n1 [Compound S14S14D9] | 0.0 | 0.0
43 | CCCCCCCCCNc1nc(NCCCCCCCCC)nc(NCCN(CC)CC)n1 [Compound N9N9D7] | 0.0 | 0.3
44 | CCCCCCCCCCCCCCCCSc1nc(NCCN2CCOCC2)nc(SCCCCCCCCCCCCCCC)n1 [Compound S15S16D2] | 0.0 | 0.7
45 | CCCCCCCCCCCCCCCCCCSc1nc(NCCN2CCCCC2)nc(SCCCCCCCCCCCCCCCC)n1 [Compound S16S18D4] | 0.3 | 0.3
46 | CCCCCCCCCCCCCCCCNc1nc(NCCCCCCCCCCCCCCC)nc(NCCN(CC)CC)n1 [Compound N15N16D7] | 0.9 | 0.0
47 | CCCCCCCCCCCCCNc1nc(NCCCCCCCCCCCC)nc(NCCN2CCOCC2)n1 [Compound N12N13D2] | 0.1 | 0.0

Source: patent US20230123334A1, “AMINO LIPID COMPOUND, PREPARATION METHOD THEREFOR, AND APPLICATION THEREOF” (SHENZHEN SHENXIN BIOTECHNOLOGY CO., LTD., priority 2020, published 2023)
